Measured values reported in ChEMBL document CHEMBL1201861, “Genomics of Drug Sensitity in Cancer screening data, Wellcome Trust Sanger Institute”.

Key:
Assay in all cases: cells
COLO-792 = assay type: functional, cell-based, Homo sapiens; settings: Homo sapiens, COLO-792
Description: SANGER: Inhibition of human COLO-792 cell growth in a cell viability assay.

CP50-MEL-B = assay type: functional, cell-based, Homo sapiens; settings: Homo sapiens, CP50-MEL-B;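 also: growth inhibition of the human cell line, measured with a cell viability read-out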
Description: SANGER: Inhibition of human CP50-MEL-B cell growth in a cell viability assay.

CW-2 = assay type: functional, cell-based, Homo sapiens; settings: Homo sapiens, CW-2;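 also: growth inhibition of CW-2 cells, read out by a cell viability assay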
Description: SANGER: Inhibition of human CW-2 cell growth in a cell viability assay.

Ca-Ski = assay type: functional, cell-based; settings: Homo sapiens;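 also: cell viability assay measuring inhibition of Ca-Ski cell growth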
Description: SANGER: Inhibition of human Ca-Ski cell growth in a cell viability assay.

Calu-6 = assay type: functional, cell-based, Homo sapiens; settings: Homo sapiens, Calu-6;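 also: growth of human Calu-6 cells, read out by a cell viability assay, IC50 marking inhibition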
Description: SANGER: Inhibition of human Calu-6 cell growth in a cell viability assay.

Capan-2 = assay type: functional, cell-based, Homo sapiens; settings: Homo sapiens, Capan-2;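 also: Capan-2 cell growth inhibition, read out with a viability assay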
Description: SANGER: Inhibition of human Capan-2 cell growth in a cell viability assay.

DOHH-2 = assay type: functional, cell-based; settings: Homo sapiens;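 also: growth inhibition of human DOHH-2 cells, read out with a cell viability assay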
Description: SANGER: Inhibition of human DOHH-2 cell growth in a cell viability assay.

Detroit 562 = assay type: functional, cell-based, Homo sapiens; settings: Homo sapiens, Detroit 562;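 also: growth inhibition of human Detroit 562 cells, read out by a cell viability assay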
Description: SANGER: Inhibition of human Detroit562 cell growth in a cell viability assay.

EW-24 = assay type: functional, cell-based; settings: Homo sapiens;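 also: human EW-24 cancer cell line, growth inhibition read out via a cell viability assay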
Description: SANGER: Inhibition of human EW-24 cell growth in a cell viability assay.

HCC1569 = assay type: functional, cell-based, Homo sapiens; settings: Homo sapiens, HCC1569;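 also: growth inhibition of human HCC1569 cells, read out with a cell viability assay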
Description: SANGER: Inhibition of human HCC1569 cell growth in a cell viability assay.

HCC2218 = assay type: functional, cell-based; settings: Homo sapiens;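 also: cell viability assay read-out, with IC50 given as the concentration that inhibits growth of the cell line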
Description: SANGER: Inhibition of human HCC2218 cell growth in a cell viability assay.

HCC 2998 = assay type: functional, cell-based, Homo sapiens; settings: Homo sapiens, HCC 2998;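 also: growth inhibition of human HCC2998 cells, measured with a cell viability read-out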
Description: SANGER: Inhibition of human HCC2998 cell growth in a cell viability assay.

HD-MY-Z = assay type: functional, cell-based, Homo sapiens; settings: Homo sapiens, HD-MY-Z;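 also: growth inhibition of HD-MY-Z cells, read out with a cell viability assay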
Description: SANGER: Inhibition of human HD-MY-Z cell growth in a cell viability assay.

HO-1-N-1 = assay type: functional, cell-based, Homo sapiens; settings: Homo sapiens, HO-1-N-1;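 also: growth inhibition of human HO-1-N-1 cells, read out with a cell viability assay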
Description: SANGER: Inhibition of human HO-1-N-1 cell growth in a cell viability assay.

HOP-62 = assay type: functional, cell-based, Homo sapiens; settings: Homo sapiens, HOP-62;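 also: cell growth inhibition determined with a viability assay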
Description: SANGER: Inhibition of human HOP-62 cell growth in a cell viability assay.

HT-1080 = assay type: functional, cell-based, Homo sapiens; settings: Homo sapiens, HT-1080
Description: SANGER: Inhibition of human HT-1080 cell growth in a cell viability assay.

IGROV-1 = assay type: functional, cell-based, Homo sapiens; settings: Homo sapiens, IGROV-1;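 also: reduction of IGROV-1 cell growth, read out with a viability assay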
Description: SANGER: Inhibition of human IGROV-1 cell growth in a cell viability assay.

IST-SL1 = assay type: functional, cell-based, Homo sapiens; settings: Homo sapiens, IST-SL1;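 also: growth inhibition of human IST-SL1 cells, read out with a cell viability assay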
Description: SANGER: Inhibition of human IST-SL1 cell growth in a cell viability assay.

JAR = assay type: functional, cell-based, Homo sapiens; settings: Homo sapiens, JAR;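 also: growth inhibition of human JAR cells determined with a cell viability assay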
Description: SANGER: Inhibition of human JAR cell growth in a cell viability assay.

KALS-1 = assay type: functional, cell-based, Homo sapiens; settings: Homo sapiens, KALS-1;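 also: growth inhibition of KALS-1 cells, determined with a cell viability assay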
Description: SANGER: Inhibition of human KALS-1 cell growth in a cell viability assay.

KINGS-1 = assay type: functional, cell-based, Homo sapiens; settings: Homo sapiens, KINGS-1;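 also: cell viability assay measuring suppression of KINGS-1 cell growth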
Description: SANGER: Inhibition of human KINGS-1 cell growth in a cell viability assay.

KS-1 = assay type: functional, cell-based, Homo sapiens; settings: Homo sapiens, KS-1;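 also: growth inhibition of KS-1 cells, read out with a cell viability assay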
Description: SANGER: Inhibition of human KS-1 cell growth in a cell viability assay.

KYSE-510 = assay type: functional, cell-based, Homo sapiens; settings: Homo sapiens, KYSE-510;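 also: cell viability readout used to measure how strongly growth of the cell line is suppressed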
Description: SANGER: Inhibition of human KYSE-510 cell growth in a cell viability assay.

LB2518-MEL = assay type: functional, cell-based, Homo sapiens; settings: Homo sapiens, LB2518-MEL;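 also: growth inhibition of human LB2518-MEL cells, measured with a cell viability assay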
Description: SANGER: Inhibition of human LB2518-MEL cell growth in a cell viability assay.

LS-411N = assay type: functional, cell-based, Homo sapiens; settings: Homo sapiens, LS-411N
LXF-289 cell line = assay type: functional, cell-based, Homo sapiens; settings: Homo sapiens, LXF-289
Description: SANGER: Inhibition of human LXF-289 cell growth in a cell viability assay.

MLMA = assay type: functional, cell-based, Homo sapiens; settings: Homo sapiens, MLMA;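 also: growth inhibition of MLMA cells (human), determined through a cell viability readout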
Description: SANGER: Inhibition of human MLMA cell growth in a cell viability assay.

MZ7-mel = assay type: functional, cell-based, Homo sapiens; settings: Homo sapiens, MZ7-mel;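 also: growth inhibition of human MZ7-mel cells, measured by a cell viability assay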
Description: SANGER: Inhibition of human MZ7-mel cell growth in a cell viability assay.

Mo = assay type: functional, cell-based; settings: Homo sapiens
Description: SANGER: Inhibition of human Mo-T cell growth in a cell viability assay.

NCI-H1395 = assay type: functional, cell-based, Homo sapiens; settings: Homo sapiens, NCI-H1395;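 also: cell viability assay read-out quantifying reduced proliferation of human NCI-H1395 cells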
Description: SANGER: Inhibition of human NCI-H1395 cell growth in a cell viability assay.

NCI-H1623 = assay type: functional, cell-based, Homo sapiens; settings: Homo sapiens, NCI-H1623;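 also: cell viability assay used as the read-out for growth inhibition of NCI-H1623 cells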
Description: SANGER: Inhibition of human NCI-H1623 cell growth in a cell viability assay.

NCI-H1651 = assay type: functional, cell-based, Homo sapiens; settings: Homo sapiens, NCI-H1651;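 also: Read-out is a cell viability assay, with IC50 expressing inhibition of NCI-H1651 cell growth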
Description: SANGER: Inhibition of human NCI-H1651 cell growth in a cell viability assay.

NCI-H2126 = assay type: functional, cell-based, Homo sapiens; settings: Homo sapiens, NCI-H2126;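 also: growth inhibition of the cancer cell line, determined with a cell viability readout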
Description: SANGER: Inhibition of human NCI-H2126 cell growth in a cell viability assay.

NCI-H661 = assay type: functional, cell-based, Homo sapiens; settings: Homo sapiens, NCI-H661;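 also: cell viability assay read-out, IC50 being the concentration that inhibits growth of the cells by half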
Description: SANGER: Inhibition of human NCI-H661 cell growth in a cell viability assay.

SNU-5 = assay type: functional, cell-based; settings: Homo sapiens;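 also: cell viability readout used to measure growth inhibition in human NCI-SNU-5 cells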
Description: SANGER: Inhibition of human NCI-SNU-5 cell growth in a cell viability assay.

OE19 = assay type: functional, cell-based, Homo sapiens; settings: Homo sapiens, OE19;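 also: growth inhibition of OE19 cells, measured through a cell viability read-out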
Description: SANGER: Inhibition of human OE19 cell growth in a cell viability assay.

PC-3 = assay type: functional, cell-based, Homo sapiens; settings: Homo sapiens, PC-3;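 also: cell viability assay measuring growth inhibition of PC-3 cells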
Description: SANGER: Inhibition of human PC-3 cell growth in a cell viability assay.

RCM-1 = assay type: functional, cell-based, Homo sapiens; settings: Homo sapiens, RCM-1;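 also: growth inhibition of the RCM-1 line, determined with a cell viability readout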
Description: SANGER: Inhibition of human RCM-1 cell growth in a cell viability assay.

SK-MEL3 = assay type: functional, cell-based, Homo sapiens, SK-MEL-3; settings: Homo sapiens, SK-MEL3;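 also: growth inhibition of human SK-MEL-3 cells, read out with a cell viability assay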
Description: SANGER: Inhibition of human SK-MEL-3 cell growth in a cell viability assay.

SK-NEP-1 = assay type: functional, cell-based; settings: Homo sapiens;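 also: growth inhibition of human SK-NEP-1 cells, read out by a cell viability assay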
Description: SANGER: Inhibition of human SK-NEP-1 cell growth in a cell viability assay.

SW1088 = assay type: functional, cell-based, Homo sapiens; settings: Homo sapiens, SW1088;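 also: growth inhibition of human SW1088 cells, read out by a cell viability assay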
Description: SANGER: Inhibition of human SW1088 cell growth in a cell viability assay.

T-24 = assay type: functional, cell-based, Homo sapiens; settings: Homo sapiens, T-24;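 also: growth inhibition of T-24 cells, read out with a cell viability assay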
Description: SANGER: Inhibition of human T-24 cell growth in a cell viability assay.

T47D = assay type: functional, cell-based, Homo sapiens; settings: Homo sapiens, T47D;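 also: growth inhibition of human T47D cells, measured with a cell viability assay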
Description: SANGER: Inhibition of human T47D cell growth in a cell viability assay.

A-427 = assay type: functional, cell-based, Homo sapiens; settings: Homo sapiens, A-427;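 also: growth inhibition of human A-427 cells, read out by a cell viability assay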
Description: SANGER: Inhibition of human A427 cell growth in a cell viability assay.

AU565 = assay type: functional, cell-based, Homo sapiens; settings: Homo sapiens, AU565;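 also: cell viability assay measuring growth inhibition of human AU565 cells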
Description: SANGER: Inhibition of human AU565 cell growth in a cell viability assay.

BB49-HNC = assay type: functional, cell-based, Homo sapiens; settings: Homo sapiens, BB49-HNC;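 also: cell viability assay read-out, reported as inhibition of BB49-HNC cell growth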
Description: SANGER: Inhibition of human BB49-HNC cell growth in a cell viability assay.

BEN = assay type: functional, cell-based, Homo sapiens; settings: Homo sapiens, BEN;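 also: growth inhibition of the BEN cell line, read out with a cell viability assay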
Description: SANGER: Inhibition of human BEN cell growth in a cell viability assay.

BFTC-909 = assay type: functional, cell-based, Homo sapiens; settings: Homo sapiens, BFTC-909
Description: SANGER: Inhibition of human BFTC-909 cell growth in a cell viability assay.

BPH-1 = assay type: functional, cell-based, Homo sapiens; settings: Homo sapiens, BPH-1;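 also: cell viability assay measuring growth inhibition of human BPH-1 cells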
Description: SANGER: Inhibition of human BPH-1 cell growth in a cell viability assay.

C8166 = assay type: functional, cell-based; settings: Homo sapiens;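 also: growth inhibition of human C8166 cells measured by a cell viability assay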
Description: SANGER: Inhibition of human C8166 cell growth in a cell viability assay.

YKG-1 = assay type: functional, cell-based, Homo sapiens; settings: Homo sapiens, YKG-1;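 also: cell growth inhibition, read out with a viability assay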
Description: SANGER: Inhibition of human YKG-1 cell growth in a cell viability assay.

Question: Which IC50 (COLO-792) does the source give for `CN(c1ncccc1CNc1nc(Nc2ccc3c(c2)CC(=O)N3)ncc1C(F)(F)F)S(C)(=O)=O` [PF-00562271] here?
Answer: The IC50 was greater than 2.56 µM.

Question: What about the IC50 (CP50-MEL-B) of the same molecule?
Answer: The IC50 was greater than 2.56 µM.

Question: And the IC50 (CW-2)?
Answer: Its IC50 is greater than 2.56 µM.

Question: And the IC50 (Ca-Ski)?
Answer: Its IC50 is greater than 2.56 µM.

Question: And the IC50 (Calu-6)?
Answer: Its IC50 is greater than 2.56 µM.

Question: And the IC50 (Capan-2)?
Answer: Its IC50 is greater than 2.56 µM.

Question: And the IC50 (DOHH-2)?
Answer: The IC50 was greater than 2.56 µM.

Question: And the IC50 (Detroit 562)?
Answer: Its IC50 is 1.35 µM.

Question: And the IC50 (EW-24)?
Answer: The IC50 was greater than 2.56 µM.

Question: And the IC50 (HCC1569)?
Answer: The IC50 was greater than 2.56 µM.

Question: And the IC50 (HCC2218)?
Answer: Its IC50 is greater than 2.56 µM.

Question: What about the IC50 (HCC 2998) of the same molecule?
Answer: Its IC50 is greater than 2.56 µM.

Question: What about the IC50 (HD-MY-Z) of the same molecule?
Answer: The IC50 was greater than 2.56 µM.

Question: What about the IC50 (HO-1-N-1) of the same molecule?
Answer: Its IC50 is greater than 2.56 µM.

Question: What about the IC50 (HOP-62) of the same molecule?
Answer: The IC50 was greater than 2.56 µM.

Question: What about the IC50 (HT-1080) of the same molecule?
Answer: The IC50 was greater than 2.56 µM.

Question: What about the IC50 (IGROV-1) of the same molecule?
Answer: Its IC50 is 0.81 µM.

Question: What about the IC50 (IST-SL1) of the same molecule?
Answer: Its IC50 is greater than 2.56 µM.

Question: What about the IC50 (JAR) of the same molecule?
Answer: Its IC50 is greater than 2.56 µM.

Question: And the IC50 (KALS-1)?
Answer: Its IC50 is greater than 2.56 µM.

Question: And the IC50 (KINGS-1)?
Answer: The IC50 was greater than 2.56 µM.

Question: And the IC50 (KS-1)?
Answer: The IC50 was greater than 2.56 µM.

Question: What about the IC50 (KYSE-510) of the same molecule?
Answer: The IC50 was greater than 2.56 µM.

Question: What about the IC50 (LB2518-MEL) of the same molecule?
Answer: The IC50 was greater than 2.56 µM.

Question: What about the IC50 (LS-411N) of the same molecule?
Answer: Its IC50 is greater than 2.56 µM.

Question: What about the IC50 (LXF-289 cell line) of the same molecule?
Answer: The IC50 was greater than 2.56 µM.

Question: And the IC50 (MLMA)?
Answer: Its IC50 is greater than 2.56 µM.

Question: And the IC50 (MZ7-mel)?
Answer: Its IC50 is greater than 2.56 µM.

Question: And the IC50 (Mo)?
Answer: Its IC50 is greater than 2.56 µM.

Question: What about the IC50 (NCI-H1395) of the same molecule?
Answer: The IC50 was greater than 2.56 µM.

Question: What about the IC50 (NCI-H1623) of the same molecule?
Answer: The IC50 was greater than 2.56 µM.

Question: And the IC50 (NCI-H1651)?
Answer: The IC50 was greater than 2.56 µM.

Question: What about the IC50 (NCI-H2126) of the same molecule?
Answer: Its IC50 is greater than 2.56 µM.

Question: And the IC50 (NCI-H661)?
Answer: The IC50 was greater than 2.56 µM.

Question: What about the IC50 (SNU-5) of the same molecule?
Answer: The IC50 was greater than 2.56 µM.

Question: What about the IC50 (OE19) of the same molecule?
Answer: The IC50 was greater than 2.56 µM.

Question: What about the IC50 (PC-3) of the same molecule?
Answer: Its IC50 is greater than 2.56 µM.

Question: What about the IC50 (RCM-1) of the same molecule?
Answer: The IC50 was greater than 2.56 µM.

Question: And the IC50 (SK-MEL3)?
Answer: Its IC50 is greater than 2.56 µM.

Question: And the IC50 (SK-NEP-1)?
Answer: Its IC50 is greater than 2.56 µM.

Question: What about the IC50 (SW1088) of the same molecule?
Answer: Its IC50 is greater than 2.56 µM.

Question: What about the IC50 (T-24) of the same molecule?
Answer: Its IC50 is greater than 2.56 µM.

Question: And the IC50 (T47D)?
Answer: Its IC50 is greater than 2.56 µM.

Question: And the IC50 (A-427)?
Answer: Its IC50 is greater than 2.56 µM.

Question: And the IC50 (AU565)?
Answer: Its IC50 is greater than 2.56 µM.

Question: And the IC50 (BB49-HNC)?
Answer: The IC50 was greater than 2.56 µM.

Question: And the IC50 (BEN)?
Answer: The IC50 was greater than 2.56 µM.

Question: What about the IC50 (BFTC-909) of the same molecule?
Answer: Its IC50 is greater than 2.56 µM.

Question: And the IC50 (BPH-1)?
Answer: Its IC50 is 1.29 µM.

Question: What about the IC50 (C8166) of the same molecule?
Answer: The IC50 was greater than 2.56 µM.

Question: What about the IC50 (YKG-1) of the same molecule?
Answer: Its IC50 is greater than 2.56 µM.

Question: What does the source list for `COC(=O)CNC(=O)C(=O)OC`?
Answer: IC50 (COLO-792): > 4000 µM; IC50 (CP50-MEL-B): > 4000 µM; IC50 (CW-2): > 4000 µM; IC50 (Ca-Ski): 157 µM; IC50 (Calu-6): 732 µM; IC50 (Capan-2): 338 µM; IC50 (DOHH-2): 281 µM; IC50 (Detroit 562): 507 µM; IC50 (EW-24): 2290 µM; IC50 (HCC1569): 1680 µM; IC50 (HCC2218): > 4000 µM; IC50 (HCC 2998): 3160 µM; IC50 (HD-MY-Z): 1480 µM; IC50 (HO-1-N-1): 1070 µM; IC50 (HOP-62): 167 µM; IC50 (HT-1080): 421 µM; IC50 (IGROV-1): 1390 µM; IC50 (IST-SL1): 492 µM; IC50 (KALS-1): 624 µM; IC50 (KINGS-1): 585 µM; IC50 (KS-1): 11.3 µM; IC50 (KYSE-510): 112 µM; IC50 (LB2518-MEL): 235 µM; IC50 (LS-411N): > 4000 µM; IC50 (LXF-289 cell line): 260 µM; IC50 (MLMA): 46.3 µM; IC50 (MZ7-mel): 171 µM; IC50 (Mo): 1880 µM; IC50 (NCI-H1395): > 4000 µM; IC50 (NCI-H1623): 117 µM; IC50 (NCI-H1651): 1360 µM; IC50 (NCI-H2126): 1800 µM; IC50 (NCI-H661): 2280 µM; IC50 (SNU-5): > 4000 µM; IC50 (OE19): > 4000 µM; IC50 (PC-3): 418 µM; IC50 (RCM-1): 2980 µM; IC50 (SK-MEL3): 279 µM; IC50 (SK-NEP-1): 976 µM; IC50 (SW1088): 2720 µM; IC50 (T-24): > 4000 µM; IC50 (T47D): > 4000 µM; IC50 (A-427): 642 µM; IC50 (AU565): > 4000 µM; IC50 (BB49-HNC): 611 µM; IC50 (BEN): 36.8 µM; IC50 (BFTC-909): 252 µM; IC50 (BPH-1): 276 µM; IC50 (C8166): 1040 µM; IC50 (YKG-1): 767 µM
